pIC50: −log10 of the molar value.

T1 sequence (Q9UM07 2-663): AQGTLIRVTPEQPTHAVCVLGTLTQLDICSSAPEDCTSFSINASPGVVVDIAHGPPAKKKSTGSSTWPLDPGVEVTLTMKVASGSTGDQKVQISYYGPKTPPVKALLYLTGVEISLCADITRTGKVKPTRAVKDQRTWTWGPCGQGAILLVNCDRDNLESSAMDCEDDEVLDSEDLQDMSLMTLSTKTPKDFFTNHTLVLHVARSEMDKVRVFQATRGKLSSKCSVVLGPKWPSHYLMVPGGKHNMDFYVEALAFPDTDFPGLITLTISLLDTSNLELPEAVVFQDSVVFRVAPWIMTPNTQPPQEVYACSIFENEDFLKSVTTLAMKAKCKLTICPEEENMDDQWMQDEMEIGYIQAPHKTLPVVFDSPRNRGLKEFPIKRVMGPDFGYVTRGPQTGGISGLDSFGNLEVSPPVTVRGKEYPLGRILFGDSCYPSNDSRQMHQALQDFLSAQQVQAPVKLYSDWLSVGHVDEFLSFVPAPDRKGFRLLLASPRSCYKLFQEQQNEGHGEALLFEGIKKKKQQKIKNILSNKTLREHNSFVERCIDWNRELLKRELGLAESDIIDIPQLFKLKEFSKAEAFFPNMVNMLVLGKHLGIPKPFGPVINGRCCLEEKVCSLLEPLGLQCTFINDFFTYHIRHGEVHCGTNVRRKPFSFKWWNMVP

The assay concerns the target T1, human PAD4 (Homo sapiens, UniProt Q9UM07).
T1 construct: human PAD4 (NM_012387), A2-P663, was PCR amplified; His-SUMO (N, cleaved yes); made in house; host or cells: E. coli BL21(DE3)
Briefly: In vitro PAD4 BAEE biochemical assay. The note with it: BAEE substrate 3 mM, 5 nM PAD4, 2 mM calcium chloride; geometric mean of multiple experiments. A digest of the protocol:
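Recombinant human PAD4 (5 nM final) with 2 mM CaCl2 was preincubated with compound 30 min at 25 °C in MOPS buffer pH 7.6, then reacted with 3 mM BAEE for 2 h at 25 °C. After EDTA stop, released ammonia was detected by o-phthalaldehyde/DTT fluorescence (ex 405/em 535 nm); IC50 from four-parameter fit, geometric mean.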
`C[C@H]1NC(=O)c2ccc(Cl)nc2CC[C@H]2C[C@@H]2Cn2c(-c3nc4cc(C(=O)N5C[C@H](N)[C@@H]6CC[C@H]5C6)cc(F)c4n3C3CC3)cc3ccc1nc32` [Example 878, (3~{S},5~{S},16~{R})-22-[5-[(1~{S},4~{R},5~{R})-4-amino-2-azabicyclo[3.2.1]octane-2-carbonyl]-1-cyclopropyl-7-fluoro-benzimidazol-2-yl]-10-chloro-16-methyl-1,9,15,24-tetrazapentacyclo [15.5.2.0^{3,5}.0^ {8,13}.0^{20,23}]tetracosa-8(13),9,11,17(24),18,20(23), 21-heptaen-14-one]: the pIC50 was 7.59.
With `C[C@H]1NC(=O)c2ccc(Cl)nc2CC[C@@H]2C[C@H]2Cn2c(-c3nc4cc(C(=O)N5C[C@H](N)[C@@H]6CC[C@H]5C6)cc(F)c4n3C3CC3)cc3ccc1nc32` [Example 879, (3~{R},5~{R},16~{R})-22-[5-[(1~{S},4~{R}, 5~{R})-4-amino-2-azabicyclo[3.2.1]octane-2-carbonyl]-1-cyclopropyl-7-fluoro-benzimidazol-2-yl]-10-chloro-16-methyl-1,9,15,24-tetrazapentacyclo[15.5.2.0^ {3,5}.0^{8,13}.0^{20,23}] tetracosa-8(13),9,11,17(24), 18,20(23),21-heptaen-14-one], the pIC50 is 7.47.
In the case of `C[C@H]1NC(=O)[C@H]2C[C@@H]2CC(F)(F)CCCn2c(-c3nc4cc(C(=O)N5C[C@H](N)[C@@H]6CC[C@H]5C6)cc(F)c4n3C3CC3)cc3ccc1nc32` [Example 880, (2~{R},5~{S},7~{R})-14-[5-[(1~{S},4~{R},5~{R})-4-amino-2-azabicyclo[3.2.1]octane-2-carbonyl]-1-cyclopropyl-7-fluoro-benzimidazol-2-yl]-9,9-difluoro-2-methyl-3,13,19-triazatetracyclo [11.5.2.0^{5,7}.0^{16,20}] icosa-1(19),14,16(20), 17-tetraen-4-one], the negative-log IC50 (pIC50) was 7.41.
Under `C[C@H]1NC(=O)[C@@H]2C[C@H]2CC(F)(F)CCCn2c(-c3nc4cc(C(=O)N5C[C@H](N)[C@@H]6CC[C@H]5C6)cc(F)c4n3C3CC3)cc3ccc1nc32` [Example 881, (2~{R},5~{R},7~{S})-14-[5-[(1~{S},4~{R},5~{R})-4-amino-2-azabicyclo [3.2.1]octane-2-carbonyl]-1-cyclopropyl-7-fluoro-benzimidazol-2-yl]-9,9-difluoro-2-methyl-3,13,19-triazatetracyclo [11.5.2.0^{5,7}.0^{16,20}] icosa-1(19),14,16(20), 17-tetraen-4-one] stands 7.62; under `C[C@H]1NC(=O)[C@@H]2C[C@H]2CCCCCn2c(-c3nc4cc(C(=O)N5C[C@H](N)[C@@H]6CC[C@H]5C6)cc(F)c4n3C3CC3)cc3ccc1nc32` [Example 882, (2~{R},5~{R},7~{R})-14-[5-[(1~{S),4~{R},5~{R})-4-amino-2-azabicyclo [3.2.1]octane-2-carbonyl]-1-cyclopropyl-7-fluoro-benzimidazol-2-yl]-2-methyl-3,13,19-triazatetracyclo[11.5.2.0^ {5,7}.0^{16,20}]icosa-1(19),14,16(20),17-tetraen-4-one], 7.66.
Turning to `COc1cc(C(=O)N2C[C@H](N)[C@@H]3CC[C@H]2C3)cc2nc(-c3cc4ccc5nc4n3CCCCCC[C@](F)(c3ccccn3)C(=O)N[C@@H]5C)n(C)c12` [Example 883, (8~{S},11~{R})-17-[5-[(1~{S},4~{R},5~{R})-4-amino-2-azabicyclo[3.2.1]octane-2-carbonyl]-7-methoxy-1-methyl-benzimidazol-2-yl]-8-fluoro-11-methyl-8-(2-pyridyl)-1,10,19-triazatricyclo[10.5.2.0^ {15,18}]nonadeca-12(19), 13,15(18),16-tetraen-9-one], the pIC50 was 7.74.
As to `COc1cc(C(=O)N2C[C@H](N)[C@@H]3CC[C@H]2C3)cc2nc(-c3cc4ccc5nc4n3CCCCCC[C@@](F)(c3ccccn3)C(=O)N[C@@H]5C)n(C)c12` [Example 884, (8~{R},11~{R})-17-[5-[(1~{S),4~{R},5~{R})-4-amino-2-azabicyclo[3.2.1]octane-2-carbonyl]-7-methoxy-1-methyl-benzimidazol-2-yl]-8-fluoro-11-methyl-8-(2-pyridyl)-1,10,19-triazatricyclo[10.5.2.0^ {15,18}]nonadeca-12(19), 13,15(18),16-tetraen-9-one], the pIC50 is 7.62.
Under `C[C@H]1NC(=O)[C@@](F)(c2ccccn2)CCCCCCn2c(-c3nc4cc(C(=O)N5C[C@H](N)[C@@H]6CC[C@H]5C6)cc(F)c4n3C3CC3)cc3ccc1nc32` [Example 885, (8~{S},11~{R})-17-[5-[(1~{S},4~{R},5~{R})-4-amino-2-azabicyclo[3.2.1]octane-2-carbonyl]-1-cyclopropyl-7-fluoro-benzimidazol-2-yl]-8-fluoro-11-methyl-8-(2-pyridyl)-1,10,19-triazatricyclo[10.5.2.0^ {15,18}]nonadeca-12(19), 13,15(18),16-tetraen-9-one] stands 7.96.
For the molecule `C[C@H]1NC(=O)[C@](F)(c2ccccn2)CCCCCCn2c(-c3nc4cc(C(=O)N5C[C@H](N)[C@@H]6CC[C@H]5C6)cc(F)c4n3C3CC3)cc3ccc1nc32` [Example 886, (8~{R},11~{R})-17-[5-[(1~{S),4~{R},5~{R))-4-amino-2-azabicyclo[3.2.1]octane-2-carbonyl]-1-cyclopropyl-7-fluoro-benzimidazol-2-yl]-8-fluoro-11-methyl-8-(2-pyridyl)-1,10,19-triazatricyclo [10.5.2.0^{15,18}]nonadeca-12(19),13,15(18), 16-tetraen-9-one], the pIC50 is 7.54.
In the case of `COc1cc(C(=O)N2C[C@H](N)[C@@H]3CC[C@H]2C3)cc2nc(-c3cc4ccc5nc4n3CCCCCC[C@@](F)(c3cccc(Cl)n3)C(=O)N[C@@H]5C)n(C)c12` [Example 887, (8~{R},11~{R})-17-[5-[(1~{S),4~{R},5~{R})-4-amino-2-azabicyclo[3.2.1]octane-2-carbonyl]-7-methoxy-1-methyl-benzimidazol-2-yl]-8-(6-chloro-2-pyridyl)-8-fluoro-11-methyl-1,10,19-triazatricyclo[10.5.2.0^ {15,18}]nonadeca-12(19),13,15(18), 16-tetraen-9-one], the pIC50 was 7.28.
Turning to `COc1cc(C(=O)N2C[C@H](N)[C@@H]3CC[C@H]2C3)cc2nc(-c3cc4ccc5nc4n3CCCCCC[C@](F)(c3cccc(Cl)n3)C(=O)N[C@@H]5C)n(C)c12` [Example 888, (8~{S},11~{R})-17-[5-[(1~{S},4~{R},5~{R})-4-amino-2-azabicyclo[3.2.1]octane-2-carbonyl]-7-methoxy-1-methyl-benzimidazol-2-yl]-8-(6-chloro-2-pyridyl)-8-fluoro-11-methyl-1,10,19-triazatricyclo[10.5.2.0^ {15,18}]nonadeca-12(19), 13,15(18),16-tetraen-9-one], the pIC50 is 7.43.
To `COc1cc(C(=O)N2C[C@H](N)[C@@H]3CC[C@H]2C3)cc2nc(-c3cc4ccc5nc4n3CCCCCC[C@](c3ccccn3)(C(F)F)C(=O)N[C@@H]5C)n(C)c12` [Example 889, (8~{R},11~{R})-17-[5-[(1~{S},4~{R},5~{R})-4-amino-2-azabicyclo[3.2.1]octane-2-carbonyl]-7-methoxy-1-methyl-benzimidazol-2-yl]-8-(difluoromethyl)-11-methyl-8-(2-pyridyl)-1,10,19-triazatricyclo [10.5.2.0^{15,18}]nonadeca-12(19),13,15(18),16-tetraen-9-one] belongs 7.27.

The values are drawn from patent US11976083B2, “Inhibitors of peptidylarginine deiminases” (Gilead Sciences, Inc., priority 2020, dated 2024).
